Reference: the supplement of paper PMC10307832

What was measured:
Test in all cases: relative viability (nuclei count vs DMSO), 5 days (fraction); higher = more cells survive
[1] = compound: CC1=CC(=NN1)NC2=CC(=NC(=N2)/C=C/C3=CC=CC=C3)N4CCN(CC4)C + C[C@]1(O)C[C@@H](c2nc(-c3ccc4ccc(-c5ccccc5)nc4c3)c3c(N)nccn32)C1 [Linsitinib] (partner 1 µM)
Method in brief: (§1)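 Relative viability is defined as nuclei in treated wells over nuclei in vehicle wells. Duplicate plates were run and medians reported. Lung cancer cell lines in 1536-well plates were dosed by pin tool one day after seeding, with one drug or with a fixed anchor-drug dose plus five library-drug doses (not always all listed) in √10 steps, and nuclei were counted after 5 days.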

[2] = compound: CC1=CC(=NN1)NC2=CC(=NC(=N2)/C=C/C3=CC=CC=C3)N4CCN(CC4)C + COc1cccc2cc(-c3nc([C@H]4CC[C@H](C(=O)O)CC4)n4ncnc(N)c34)[nH]c12 [OSI-027] (partner 0.5 µM)
Method in brief: as §1

Bortezomib + Foretinib = compound: CC(C)C[C@H](NC(=O)[C@H](Cc1ccccc1)NC(=O)c1cnccn1)B(O)O [Bortezomib] + COc1cc2c(Oc3ccc(NC(=O)C4(C(=O)Nc5ccc(F)cc5)CC4)cc3F)ccnc2cc1OCCCN1CCOCC1 [Foretinib] (partner 0.25 µM)
Method in brief: as §1

| Cell Line | relative viability ([1]; first compound 0.08 µM) | relative viability ([1]; first compound 0.253 µM) | relative viability ([1]; first compound 0.8 µM) | relative viability ([1]; first compound 2.53 µM) | relative viability ([1]; first compound 8 µM) | relative viability ([2]; first compound 0.08 µM) | relative viability ([2]; first compound 0.253 µM) | relative viability ([2]; first compound 0.8 µM) | relative viability ([2]; first compound 2.53 µM) | relative viability ([2]; first compound 8 µM) | relative viability (Bortezomib + Foretinib; first compound 0.0002 µM) | relative viability (Bortezomib + Foretinib; first compound 0.002 µM) | relative viability (Bortezomib + Foretinib; first compound 0.006325 µM) | relative viability (Bortezomib + Foretinib; first compound 0.02 µM) | relative viability (Bortezomib + Foretinib; first compound 0.000632 µM) |
| --- | --- | --- | --- | --- | --- | --- | --- | --- | --- | --- | --- | --- | --- | --- | --- |
| NCI-H322M | 0.89 | 0.965 | 0.895 | 0.515 | 0.323 | 0.504 | 0.546 | 0.538 | 0.364 | 0.278 | 0.894 | 0.773 | 0.654 | 0.327 | – |
| NCI-H358 | 0.733 | 0.736 | 0.331 | 0.14 | 0.11 | 0.769 | 0.933 | 0.483 | 0.0714 | 0.0592 | 0.538 | 0.642 | 0.0816 | 0.0663 | 0.647 |
| NCI-H441 | 0.483 | 0.584 | 0.444 | 0.196 | 0.0922 | 0.607 | 0.501 | 0.589 | 0.226 | 0.179 | 0.801 | 0.563 | 0.188 | 0.168 | 0.987 |
| NCI-H460 | 0.668 | 0.869 | 0.539 | 0.0075 | 0.0036 | 0.696 | 0.606 | 0.578 | 0.0297 | 0.0153 | 0.983 | 1.13 | 0.115 | 0.0294 | 1.03 |
| NCI-H520 | 1.01 | 0.995 | 0.664 | 0.233 | 0.122 | 0.289 | 0.286 | 0.214 | 0.165 | 0.128 | 0.871 | 0.58 | 0.184 | 0.148 | 0.773 |
| NCI-H596 | 0.941 | 1.18 | 1.16 | 0.757 | 0.409 | 0.633 | 0.72 | 0.671 | 0.34 | 0.247 | 0.88 | 0.613 | 0.17 | 0.138 | 0.892 |
| NCI-H647 | 1.06 | 1.25 | 1.21 | 0.0813 | 0.0644 | 0.706 | 0.628 | 0.668 | 0.13 | 0.0671 | 0.904 | 1.25 | 0.0379 | 0.0377 | 1.3 |
| NCI-H661 | 0.618 | 0.579 | 0.663 | 0.44 | 0.182 | 0.774 | – | 0.599 | 0.39 | 0.217 | 1.04 | 1.01 | 0.559 | 0.219 | 1.03 |
| NCI-H727 | 0.208 | 0.342 | 0.261 | 0.221 | 0.1 | 0.608 | 0.485 | 0.678 | 0.398 | 0.278 | 0.809 | 0.93 | 0.603 | 0.169 | 0.694 |
| NCI-H838 | 0.999 | 1.25 | 0.857 | 0.747 | 0.122 | 0.346 | 0.413 | 0.385 | 0.208 | 0.103 | 1 | 1.17 | 0.165 | 0.13 | 1 |
| NCI-H1355 | 0.797 | 0.843 | 0.779 | 0.62 | 0.41 | 0.378 | 0.374 | 0.389 | 0.213 | 0.105 | 0.944 | 0.998 | 0.155 | 0.14 | 0.983 |
| NCI-H1395 | 1 | 1.15 | 1.04 | 0.533 | 0.361 | 0.56 | 0.621 | 0.625 | 0.387 | 0.26 | 1.01 | 0.759 | 0.341 | 0.328 | 0.927 |
| NCI-H1437 | 1.09 | 1.12 | 0.88 | 0.416 | 0.083 | 0.84 | 0.89 | 0.947 | 0.737 | 0.164 | 1.31 | 1.32 | 0.185 | 0.149 | 1.24 |
| NCI-H1563 | 1.23 | 1.34 | 1.18 | 0.718 | 0.514 | 0.776 | 0.813 | 0.722 | 0.65 | 0.431 | 0.874 | 0.803 | 0.526 | 0.475 | 0.966 |
| NCI-H1651 | 0.904 | 1.2 | 0.855 | 0.607 | 0.144 | 0.613 | 0.749 | 0.63 | 0.293 | 0.133 | 0.788 | 0.423 | 0.101 | 0.112 | 0.772 |
| NCI-H1666 | 0.83 | 0.949 | 0.747 | 0.77 | 0.288 | 0.822 | 0.921 | 0.86 | 0.79 | 0.432 | 0.868 | 0.884 | 0.289 | 0.316 | 0.945 |
| NCI-H1734 | 0.907 | 0.867 | 0.917 | 0.478 | 0.196 | 0.637 | 0.527 | 0.475 | 0.234 | 0.139 | 0.786 | 0.759 | 0.176 | 0.109 | 0.9 |
| NCI-H1755 | 1.05 | 1.04 | 0.993 | 0.799 | 0.267 | 0.724 | 0.715 | 0.648 | 0.363 | 0.209 | 0.939 | 0.868 | 0.494 | 0.192 | 0.972 |
| NCI-H1793 | 0.904 | 1.32 | 0.828 | 0.432 | 0.108 | 0.301 | 0.204 | 0.26 | 0.107 | 0.0726 | 0.611 | 0.666 | 0.512 | 0.155 | 0.617 |
| NCI-H1915 | 1.1 | 1.1 | 1.03 | 0.815 | 0.569 | 0.635 | 0.496 | 0.557 | 0.371 | 0.271 | 1.05 | 1.1 | 0.112 | 0.0806 | 1.12 |
